#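 Following 48 hours of exposure in 96-well plates, responses at five concentrations were used to interpolate endpoints linearly. At the GI50, growth is halved.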 Activity calls are given as the source filed them. Cut-off read from the data, not from the text of the source: active = GI50 up to about 1.1 µM and inactive = higher.
# Key:
# Assay in all cases: growth of human tumour cells (NCI), 48 h
# OVCAR-4 = tested on: OVCAR-4
# M14 = tested on: M14
# Malme-3M = tested on: Malme-3M
# CCRF-CEM = tested on: CCRF-CEM
# SN12C = tested on: SN12C
# NCI/ADR-RES = tested on: NCI/ADR-RES
# NCI-H522 = tested on: NCI-H522
# MOLT-4 = tested on: MOLT-4
# MDA-MB-435 = tested on: MDA-MB-435
# A498 = tested on: A498
# KM12 = tested on: KM12
# RPMI-8226 = tested on: RPMI-8226
# MDA-N = tested on: MDA-N
# HL-60 = tested on: HL-60
# OVCAR-5 = tested on: OVCAR-5
# HOP-92 = tested on: HOP-92
# HT-29 = tested on: HT-29
# HCT-15 = tested on: HCT-15
# RXF 393 = tested on: RXF 393
# SK-MEL-2 = tested on: SK-MEL-2
# COLO 205 = tested on: COLO 205
# SF-268 = tested on: SF-268
# PC-3 = tested on: PC-3
# NCI-H23 = tested on: NCI-H23
# BT-549 = tested on: BT-549
# U-251 = tested on: U-251
# CAKI-1 = tested on: CAKI-1
# SF-295 = tested on: SF-295
# MCF7 = tested on: MCF7
# EKVX = tested on: EKVX
# T47D = tested on: T47D
# HCT-116 = tested on: HCT-116
# K562 = tested on: K562
# LOX IMVI = tested on: LOX IMVI
# UACC-62 = tested on: UACC-62
# IGROV-1 = tested on: IGROV-1
# Hs-578T = tested on: Hs-578T
# HOP-62 = tested on: HOP-62
# SK-OV-3 = tested on: SK-OV-3
# MDA-MB-231 = tested on: MDA-MB-231
# SNB-19 = tested on: SNB-19
# SK-MEL-28 = tested on: SK-MEL-28
# ACHN = tested on: ACHN
# UO-31 = tested on: UO-31
# A549 = tested on: A549
# DU-145 = tested on: DU-145
# UACC-257 = tested on: UACC-257
# SW-620 = tested on: SW-620
# HCC 2998 = tested on: HCC 2998
# 786-0 = tested on: 786-0
# SK-MEL-5 = tested on: SK-MEL-5
# NCI-H460 = tested on: NCI-H460
# TK-10 = tested on: TK-10
# SR = tested on: SR
# OVCAR-8 = tested on: OVCAR-8
# NCI-H226 = tested on: NCI-H226
# SF-539 = tested on: SF-539
# SNB-75 = tested on: SNB-75
# OVCAR-3 = tested on: OVCAR-3
structure (smiles),measurement,setting,value
COC(=O)C1=C(O)c2ccc(Cl)cc2S(=O)(=O)N1C,GI50,OVCAR-4,45.1 µM (inactive)
same,GI50,M14,51.1 µM (inactive)
same,GI50,Malme-3M,77.6 µM (inactive)
same,GI50,CCRF-CEM,39.4 µM (inactive)
same,GI50,SN12C,> 100 µM (inactive)
same,GI50,NCI/ADR-RES,19.1 µM (inactive)
same,GI50,NCI-H522,34.8 µM (inactive)
same,GI50,MOLT-4,> 100 µM (inactive)
same,GI50,MDA-MB-435,> 100 µM (inactive)
same,GI50,A498,> 100 µM (inactive)
same,GI50,KM12,> 100 µM (inactive)
same,GI50,RPMI-8226,80.7 µM (inactive)
same,GI50,MDA-N,> 100 µM (inactive)
same,GI50,HL-60,33.8 µM (inactive)
same,GI50,OVCAR-5,> 100 µM (inactive)
same,GI50,HOP-92,59 µM (inactive)
same,GI50,HT-29,> 100 µM (inactive)
same,GI50,HCT-15,45.1 µM
same,GI50,RXF 393,> 100 µM (inactive)
same,GI50,SK-MEL-2,> 100 µM (inactive)
same,GI50,COLO 205,> 100 µM (inactive)
same,GI50,SF-268,64.7 µM (inactive)
same,GI50,PC-3,83.4 µM (inactive)
same,GI50,NCI-H23,58.9 µM (inactive)
same,GI50,BT-549,> 100 µM (inactive)
same,GI50,U-251,81.3 µM (inactive)
same,GI50,CAKI-1,> 100 µM (inactive)
same,GI50,SF-295,60.5 µM (inactive)
same,GI50,MCF7,> 100 µM (inactive)
same,GI50,EKVX,42.2 µM (inactive)
same,GI50,T47D,> 100 µM (inactive)
same,GI50,HCT-116,> 100 µM (inactive)
same,GI50,K562,32.1 µM (inactive)
same,GI50,LOX IMVI,> 100 µM (inactive)
same,GI50,UACC-62,> 100 µM (inactive)
same,GI50,IGROV-1,78 µM (inactive)
same,GI50,Hs-578T,> 100 µM (inactive)
same,GI50,HOP-62,> 10 µM (inactive)
same,GI50,SK-OV-3,> 100 µM (inactive)
same,GI50,MDA-MB-231,> 100 µM (inactive)
same,GI50,SNB-19,60.4 µM (inactive)
same,GI50,SK-MEL-28,> 100 µM (inactive)
same,GI50,ACHN,> 100 µM (inactive)
same,GI50,UO-31,> 10 µM (inactive)
same,GI50,A549,44.4 µM (inactive)
same,GI50,DU-145,> 100 µM (inactive)
same,GI50,UACC-257,93.3 µM (inactive)
same,GI50,SW-620,80.2 µM (inactive)
same,GI50,HCC 2998,> 100 µM (inactive)
same,GI50,786-0,> 100 µM (inactive)
same,GI50,SK-MEL-5,97.1 µM (inactive)
same,GI50,NCI-H460,45.3 µM (inactive)
same,GI50,TK-10,> 100 µM (inactive)
same,GI50,SR,> 100 µM (inactive)
COC(=O)C1CCC(=O)N1C(c1ccc(OC)cc1)c1ccc(OC)cc1 (configuration not stated),GI50,OVCAR-4,> 100 µM (inactive)
same,GI50,M14,> 100 µM (inactive)
same,GI50,Malme-3M,> 100 µM (inactive)
same,GI50,CCRF-CEM,> 100 µM (inactive)
same,GI50,SN12C,> 100 µM (inactive)
same,GI50,NCI/ADR-RES,> 100 µM (inactive)
same,GI50,NCI-H522,> 100 µM (inactive)
same,GI50,MOLT-4,> 100 µM (inactive)
same,GI50,MDA-MB-435,> 100 µM (inactive)
same,GI50,A498,> 100 µM (inactive)
same,GI50,KM12,> 100 µM (inactive)
same,GI50,RPMI-8226,> 100 µM (inactive)
same,GI50,MDA-N,> 100 µM (inactive)
same,GI50,HL-60,> 100 µM (inactive)
same,GI50,OVCAR-8,> 100 µM (inactive)
same,GI50,NCI-H226,> 100 µM (inactive)
same,GI50,OVCAR-5,> 100 µM (inactive)
same,GI50,HOP-92,> 100 µM (inactive)
same,GI50,HT-29,> 100 µM (inactive)
same,GI50,HCT-15,> 100 µM
same,GI50,SK-MEL-2,> 100 µM (inactive)
same,GI50,COLO 205,> 100 µM (inactive)
same,GI50,SF-268,> 100 µM (inactive)
same,GI50,PC-3,> 100 µM (inactive)
same,GI50,SF-539,> 100 µM (inactive)
same,GI50,NCI-H23,> 100 µM (inactive)
same,GI50,BT-549,> 100 µM (inactive)
same,GI50,U-251,> 100 µM (inactive)
same,GI50,CAKI-1,> 100 µM (inactive)
same,GI50,SF-295,> 100 µM (inactive)
same,GI50,MCF7,> 100 µM (inactive)
same,GI50,EKVX,> 100 µM (inactive)
same,GI50,T47D,78.9 µM (inactive)
same,GI50,HCT-116,> 100 µM (inactive)
same,GI50,K562,> 100 µM (inactive)
same,GI50,LOX IMVI,> 100 µM (inactive)
same,GI50,UACC-62,> 100 µM (inactive)
same,GI50,IGROV-1,> 100 µM (inactive)
same,GI50,Hs-578T,> 100 µM (inactive)
same,GI50,HOP-62,> 100 µM (inactive)
same,GI50,SK-OV-3,> 100 µM (inactive)
same,GI50,MDA-MB-231,> 100 µM (inactive)
same,GI50,SNB-19,> 100 µM (inactive)
same,GI50,SK-MEL-28,> 100 µM (inactive)
same,GI50,ACHN,> 100 µM (inactive)
same,GI50,UO-31,> 100 µM (inactive)
same,GI50,A549,> 100 µM (inactive)
same,GI50,DU-145,> 100 µM (inactive)
same,GI50,UACC-257,> 100 µM (inactive)
same,GI50,SW-620,> 100 µM (inactive)
same,GI50,HCC 2998,> 100 µM (inactive)
same,GI50,786-0,> 100 µM (inactive)
same,GI50,SK-MEL-5,> 100 µM (inactive)
same,GI50,NCI-H460,> 100 µM (inactive)
same,GI50,SNB-75,> 100 µM (inactive)
same,GI50,TK-10,> 100 µM (inactive)
same,GI50,OVCAR-3,> 100 µM (inactive)
same,GI50,SR,> 100 µM (inactive)

# From ChEMBL document CHEMBL1201862, “PubChem BioAssay data set” (2004)
